Measured values from patent publication US20230183712A1, “METHODS FOR E[…] ACID AMMONIA LYASE ENZYMES AND ENZYMES THEREBY OBTAINED” (priority 2020, published 2023).

Columns and labels:
[1] = molecular target: T1, Anabaena variabilis phenylalanine ammonia-lyase (DM-rAvPAL/AvPAL*; C503S and C565S, SEQ ID NO:2) variant M222L (Trichormus variabilis, UniProt Q3M5Z3, C503S/C565S/M222L); assay: Enzyme kinetics: production of tCA from phe (Michaelis-Menten), mutant M222L; assay type: biochemical; settings: PBS pH 7.4, 37° C.
T1 construct: His-tag (N); made in house; host or cells: E. coli MG1655 rph+
T1 sequence (Q3M5Z3 whole entry M222L/C503S/C565S, looked up): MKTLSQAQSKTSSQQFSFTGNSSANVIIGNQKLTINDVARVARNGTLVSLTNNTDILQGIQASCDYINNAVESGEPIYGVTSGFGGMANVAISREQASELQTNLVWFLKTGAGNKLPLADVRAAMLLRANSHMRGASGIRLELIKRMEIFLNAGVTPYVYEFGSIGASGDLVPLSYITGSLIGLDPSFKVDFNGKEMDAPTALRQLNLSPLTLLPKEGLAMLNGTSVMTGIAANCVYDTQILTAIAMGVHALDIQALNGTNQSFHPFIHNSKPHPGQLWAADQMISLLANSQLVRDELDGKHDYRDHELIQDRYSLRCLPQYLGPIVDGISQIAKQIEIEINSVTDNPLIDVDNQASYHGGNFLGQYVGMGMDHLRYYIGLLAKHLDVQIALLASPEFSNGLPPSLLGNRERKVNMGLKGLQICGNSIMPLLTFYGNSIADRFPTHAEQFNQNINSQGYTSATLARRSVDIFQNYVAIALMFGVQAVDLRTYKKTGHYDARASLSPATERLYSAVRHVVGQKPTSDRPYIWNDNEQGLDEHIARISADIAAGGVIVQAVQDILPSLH
Experimental: (§1) Enzyme activity assays. The activity of all AvPAL constructs was measured by production of tCA over time. Cultures were sonicated on ice using a Sonifier SFX 150 (Branson Ultrasonics, Danbury, Conn.) (2 s on; 10 s off; 4 min; 55%), and debris was separated from the lysate by centrifuging at 10,000×g for 10 min. Ten microliters of lysate were then mixed with 190 μL of pre-warmed 50 mM phe (Tokyo Chemical Industry, Portland, Oreg.) in phosphate buffered saline (PBS) (137 mM NaCl, 2.7 mM KCl, 10 mM Na2HPO4, 2 mM KH2PO4, pH 7.4) in a 96-well F-bottom UVStar (Greiner Bio-One, Kremsmünster, Austria) microtiter plate. Absorbance at 290 nm was measured every 30 s at 37° C. using a SpectraMax M3 (Molecular Devices) plate reader.
(§2) Each construct included a N-term His-tag used for immobilized metal affinity chromatography (IMAC) purification. Briefly, overnight cell cultures were sonicated in 3 mL Equilibration buffer (300 mM NaCl, 50 mM NaH2PO4, 10 mM imidazole, 15% (w/v) glycerol, pH 8.0). The lysate was loaded onto a prepared column with 2 mL TALON Metal Affinity Resin (Clontech Laboratories, Inc., Mountain View, Calif.). […] Protein concentration was measured by Bradford method using bovine serum albumin (BSA) as the standard.
(§3) Enzyme kinetics. […] The activity of 0.1 μg of protein was measured by the production of tCA over 10 min by recording the absorbance of the reaction mix at 290 nm. […]

[2] = molecular target: T2, Anabaena variabilis phenylalanine ammonia-lyase (DM-rAvPAL/AvPAL*; C503S and C565S, SEQ ID NO:2) variant L4P/G218S (Trichormus variabilis, UniProt Q3M5Z3, C503S/C565S/G218S/L4P); assay: Enzyme kinetics: production of tCA from phe (Michaelis-Menten), mutant L4P/G218S; assay type: biochemical; settings: relative to parental AvPAL*; phe 35 μM to 17.5 mM, PBS pH 7.4, 37° C.; FIG. 4a
T2 construct: His-tag (N); made in house; host or cells: E. coli MG1655 rph+
T2 sequence (Q3M5Z3 whole entry L4P/G218S/C503S/C565S, looked up): as the sequence (Q3M5Z3 whole entry M222L/C503S/C565S, looked up) above, with L4P, G218S, L222M counted along it
Experimental: as §1, §2, §3

[3] = test system: E. coli; assay: Growth of E. coli in media supplemented with tCA; assay type: cell-based, Escherichia coli; settings: MM^full,opt, 1.5 mM tCA
Experimental: Microbial strains, plasmids, and growth conditions. All Escherichia coli strains were cultured in lysogeny broth (LB) (VWR International, Randor, Pa.) at 37° C. with rotary shaking at 250 rpm. All media was solidified using 1.5% (w/v) agar (Teknova Inc, Hollister, Calif.). Minimal media (MM) conditions are described in the “Optimization of growth-coupled enrichment” section below. E. coli DH5a was used as a host for the construction of the expression vectors and cultured as above only supplemented with chloramphenicol (25 μg/mL) (RPI Corp). Initial expression in MM was performed in E. coli MG1655(DE3)^ΔendA,ΔrecA and later moved to E. coli MG1655^rph+ for final experiments.
Optimization of growth-coupled enrichment. Growth was measured by seeding cultures at OD600 0.05 and monitoring cell density over time. Initial experiments used a base nitrogen-deficient minimal media (MM^N-) (33.7 mM Na2HPO4, 22 mM KH2PO4, 8.55 mM NaCl, 1 mM MgSO4, 0.1 mM CaCl2), 10 μM FeSO4, 0.4% (v/v) glycerol, 10 μg/mL thiamine, 20 μM IPTG, 12.5 μg/mL chloramphenicol, pH 7.4) that was supplemented with 9.35 mM phe (MM^phe,init) or 9.35 mM NH4Cl) Variable conditions were changed across the parameters outlined in FIG. 2, as well as moving to a more favorable strain for growth in minimal media. […]

N[C@@H](Cc1ccccc1)C(=O)O [phe, phenylalanine]
catalytic efficiency (relative to AvPAL*) ([1]; compared to AvPAL*): improved catalytic efficiency | kcat (increase over parental AvPAL*) ([1]; relative to parental AvPAL*, phe 35 μM to 17.5 mM, FIG. 4a): 70-80% | KM (fold higher than parent) [2]: ~2.5 × | kcat (increase over parental AvPAL*) [2]: 70-80%

O=C(O)/C=C/c1ccccc1 [tCA, trans-cinnamic acid]
growth of cells supplemented with tCA [3]: impaired growth
